Laboratory results as given in patent US7495104B2, “Quinoline or quinazoline derivatives inhibiting auto-phosphorylation of fibroblast growth factor receptors” (Kirin Beer Kabushiki Kaisha, priority 2001, dated 2009).

molecular target: Bek (Homo sapiens, UniProt P21802); test: Inhibitory activity against Bek-autophosphorylation using ELISA method in OCUM-2MD3 cells; format: cell-based; conditions: 1 hr with compound, read-out: IC50 (concentration necessary for inhibiting 50% of Bek-phosphorylation)
Sequence (P21802 431-767 limits assumed): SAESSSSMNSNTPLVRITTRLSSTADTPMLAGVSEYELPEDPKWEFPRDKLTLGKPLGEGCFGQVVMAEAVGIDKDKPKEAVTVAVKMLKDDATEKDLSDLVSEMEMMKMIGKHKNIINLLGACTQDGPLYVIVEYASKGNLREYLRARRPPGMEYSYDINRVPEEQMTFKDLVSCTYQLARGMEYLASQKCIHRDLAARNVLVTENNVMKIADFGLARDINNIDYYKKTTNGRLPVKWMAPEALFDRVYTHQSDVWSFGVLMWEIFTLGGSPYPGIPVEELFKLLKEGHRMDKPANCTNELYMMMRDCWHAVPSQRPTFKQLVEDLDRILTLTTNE
Outline: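 Sandwich ELISA (anti-phosphotyrosine capture, anti-Bek detection, peroxidase, 450 nm) measured Bek autophosphorylation in OCUM-2MD3 lysates after 1 hr compound treatment at 37° C in 0.1% serum medium. IC50 derived by scaling between no-drug (100%) and excess positive control at 1000 nM (0%).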

| Structure (SMILES) | IC50 |
| --- | --- |
| COc1cc2c(Oc3ccc(NC(=O)NCCC(C)(C)C)c(Cl)c3)ccnc2cc1OCCCCCl [Compound 162, 1-{2-Chloro-4-[7-(4-chloro-butoxy)-6-methoxy-quinolin-4-yloxy]-phenyl}-3-(3,3-dimethyl-butyl)-urea] | 0.252 µM |
| COc1cc2c(Oc3ccc(NC(=O)NCCC(C)(C)C)c(Cl)c3)ccnc2cc1OCc1ccccc1 [Compound 163, 1-[4-(7-Benzyloxy-6-methoxy-quinolin-4-yloxy)-2-chloro-phenyl]-3-(3,3-dimethyl-butyl)-urea] | 0.37 µM |
| COc1cc2c(Oc3ccc(NC(=O)NCCC(C)(C)C)c(Cl)c3)ccnc2cc1OCCCCN1C(=O)c2ccccc2C1=O [Compound 164, 1-(2-Chloro-4-{7-[4-(1,3-dioxo-1,3-dihydro-isoindol-2-yl)-butoxy]-6-methoxy-quinolin-4-yloxy}-phenyl)-3-(3,3-dimethyl-butyl)-urea] | 0.26 µM |
| COc1cc2c(Oc3ccc(NC(=O)NCCC(C)(C)C)c(Cl)c3)ccnc2cc1OCCN1CCCC1 [Compound 165, 1-{2-Chloro-4-[6-methoxy-7-(2-pyrrolidin-1-yl-ethoxy)-quinolin-4-yloxy]-phenyl}-3-(3,3-dimethyl-butyl)-urea] | 0.0689 µM |
| COc1cc2c(Oc3ccc(NC(=O)NCCC(C)(C)C)c(Cl)c3)ccnc2cc1OCCN(C)C [Compound 166, 1-{2-Chloro-4-[7-(2-dimethylamino-ethoxy)-6-methoxy-quinolin-4-yloxy]-phenyl}-3-(3,3-dimethyl-butyl)-urea] | 0.039 µM |
| CCN(CC)CCOc1cc2nccc(Oc3ccc(NC(=O)NCCC(C)(C)C)c(Cl)c3)c2cc1OC [Compound 167, 1-{2-Chloro-4-[7-(2-diethylamino-ethoxy)-6-methoxy-quinolin-4-yloxy]-phenyl}-3-(3,3-dimethyl-butyl)-urea] | 0.095 µM |
| COc1cc2c(Oc3ccc(NC(=O)NCCC(C)(C)C)c(Cl)c3)ccnc2cc1OCC1CCNCC1 [Compound 168, 1-{2-Chloro-4-[6-methoxy-7-(piperidin-4-ylmethoxy)-quinolin-4-yloxy]-phenyl}-3-(3,3-dimethyl-butyl)-urea] | 0.024 µM |
| COc1cc2c(Oc3ccc(NC(=O)NCCC(C)(C)C)c(Cl)c3)ccnc2cc1OCC1CCN(C)CC1 [Compound 169, 1-{2-Chloro-4-[6-methoxy-7-(1-methyl-piperidin-4-ylmethoxy)-quinolin-4-yloxy]-phenyl}-3-(3,3-dimethyl-butyl)-urea] | 0.0252 µM |
| COc1cc2c(Oc3ccc(NC(=O)NCCC(C)(C)C)c(Cl)c3)ccnc2cc1OCC1CCN(CCO)CC1 [Compound 170, 1-(2-Chloro-4-{7-[1-(2-hydroxy-ethyl)-piperidin-4-ylmethoxy]-6-methoxy-quinolin-4-yloxy}-phenyl)-3-(3,3-dimethyl-butyl)-urea] | 0.0244 µM |
| COCCN1CCC(COc2cc3nccc(Oc4ccc(NC(=O)NCCC(C)(C)C)c(Cl)c4)c3cc2OC)CC1 [Compound 171, 1-(2-Chloro-4-{6-methoxy-7-[1-(2-methoxy-ethyl)-piperidin-4-ylmethoxy]-quinolin-4-yloxy}-phenyl)-3-(3,3-dimethyl-butyl)-urea] | 0.0324 µM |
| COc1cc2c(Oc3ccc(NC(=O)NCCC(C)(C)C)c(Cl)c3)ccnc2cc1OCCCN(C)C [Compound 172, 1-{2-Chloro-4-[7-(3-dimethylamino-propoxy)-6-methoxy-quinolin-4-yloxy]-phenyl}-3-(3,3-dimethyl-butyl)-urea] | < 0.01 µM |
| COc1cc2c(Oc3ccc(NC(=O)NCCC(C)(C)C)c(Cl)c3)ccnc2cc1OCCN1C(=O)c2ccccc2C1=O [Compound 173, 1-(2-Chloro-4-{7-[2-(1,3-dioxo-1,3-dihydro-isoindol-2-yl)-ethoxy]-6-methoxy-quinolin-4-yloxy}-phenyl)-3-(3,3-dimethyl-butyl)-urea] | 0.153 µM |
| COc1cc2c(Oc3ccc(NC(=O)NCCC(C)(C)C)c(Cl)c3)ccnc2cc1OCCCCN [Compound 175, 1-{4-[7-(4-Amino-butoxy)-6-methoxy-quinolin-4-yloxy]-2-chloro-phenyl}-3-(3,3-dimethyl-butyl)-urea] | 0.0217 µM |
| COc1cc2c(Oc3ccc(NC(=O)NCCC(C)(C)C)c(Cl)c3)ccnc2cc1OCCN(CCO)CCO [Compound 176, 1-[4-(7-{2-[Bis-(2-hydroxy-ethyl)-amino]-ethoxy}-6-methoxy-quinolin-4-yloxy)-2-chloro-phenyl]-3-(3,3-dimethyl-butyl)-urea] | < 0.01 µM |
| COc1cc2c(Oc3ccc(NC(=O)NCCC(C)(C)C)c(Cl)c3)ccnc2cc1OCCN(C)CCO [Compound 177, 1-[2-Chloro-4-(7-{2-[(2-hydroxy-ethyl)-methyl-amino]-ethoxy}-6-methoxy-quinolin-4-yloxy)-phenyl]-3-(3,3-dimethyl-butyl)-urea] | 0.0106 µM |
| COc1cc2c(Oc3ccc(NC(=O)NCCC(C)(C)C)c(Cl)c3)ccnc2cc1OCCCN(C)CCO [Compound 178, 1-[2-Chloro-4-(7-{3-[(2-hydroxy-ethyl)-methyl-amino]-propoxy}-6-methoxy-quinolin-4-yloxy)-phenyl]-3-(3,3-dimethyl-butyl)-urea] | < 0.01 µM |
| COc1cc2c(Oc3ccc(NC(=O)NCCC(C)(C)C)c(Cl)c3)ccnc2cc1OCCCN1CCCC1 [Compound 179, 1-{2-Chloro-4-[6-methoxy-7-(3-pyrrolidin-1-yl-propoxy)-quinolin-4-yloxy]-phenyl}-3-(3,3-dimethyl-butyl)-urea] | 0.0173 µM |
| COc1cc2c(Oc3ccc(NC(=O)NCCC(C)(C)C)c(Cl)c3)ccnc2cc1OCCCN1CCCCC1 [Compound 180, 1-{2-Chloro-4-[6-methoxy-7-(3-piperidin-1-yl-propoxy)-quinolin-4-yloxy]-phenyl}-3-(3,3-dimethyl-butyl)-urea] | 0.0227 µM |
| COc1cc2c(Oc3ccc(NC(=O)NCCC(C)(C)C)c(Cl)c3)ccnc2cc1OCCCN1CCCCCC1 [Compound 181, 1-{4-[7-(3-Azepan-1-yl-propoxy)-6-methoxy-quinolin-4-yloxy]-2-chloro-phenyl}-3-(3,3-dimethyl-butyl)-urea] | 0.0262 µM |
| COc1cc2c(Oc3ccc(NC(=O)NCCC(C)(C)C)c(Cl)c3)ccnc2cc1OCCCN1CCOCC1 [Compound 182, 1-{2-Chloro-4-[6-methoxy-7-(3-morpholin-4-yl-propoxy)-quinolin-4-yloxy]-phenyl}-3-(3,3-dimethyl-butyl)-urea] | 0.0095 µM |
| CCN(CC)CCCOc1cc2nccc(Oc3ccc(NC(=O)NCCC(C)(C)C)c(Cl)c3)c2cc1OC [Compound 183, 1-{2-Chloro-4-[7-(3-diethylamino-propoxy)-6-methoxy-quinolin-4-yloxy]-phenyl}-3-(3,3-dimethyl-butyl)-urea] | 0.0154 µM |
| COc1cc2c(Oc3ccc(NC(=O)NCCC(C)(C)C)c(Cl)c3)ccnc2cc1OCCCN(CCO)CCO [Compound 184, 1-[4-(7-{3-[Bis-(2-hydroxy-ethyl)-amino]-propoxy}-6-methoxy-quinolin-4-yloxy)-2-chloro-phenyl]-3-(3,3-dimethyl-butyl)-urea] | 0.0092 µM |
| COc1cc2c(Oc3ccc(NC(=O)NCCC(C)(C)C)c(Cl)c3)ccnc2cc1OCCN1CCCCCC1 [Compound 185, 1-{4-[7-(2-Azepan-1-yl-ethoxy)-6-methoxy-quinolin-4-yloxy]-2-chloro-phenyl}-3-(3,3-dimethyl-butyl)-urea] | 0.0548 µM |
